“Also recorded” adds a separate entry of the source.
Experiments:
[1] = tested on: hNIS stable expressing FaDu transfectants
Method: In Vivo Tumor Growth. […] Twenty-four hours later, cells were trypsinized, washed, and resuspended in PBS. […] After allowing 48 hours for engraftment of tumor cells, 1 mCi of [^131I] iodide was injected intraperitoneally into each mouse. Second, to assess the effects of genetically targeted radiotherapy on established tumors, 5×10^6 stably transfected NIS-expressing FaDu cells or their parental counterparts were injected subcutaneously into both flanks of athymic mice. The tumors were allowed to grow to an average tumor diameter of 5 mm and then 1 mCi of [^131I] iodide was injected intraperitoneally into each mouse. In both experiments, tumor sizes were recorded in three dimensions every 2 days. Average tumor diameters were determined by taking the cube root of tumor width×length×depth. The experiments were terminated when the average tumor diameter exceeded 10 mm. All animal studies were performed in accordance with the Public Health Service policy on Humane Care and Use of Laboratory Animals, the NIH Guide for the Care and Use of Laboratory Animals, and the Animal elfare Act (7 U.S.C. et seq.); the animal use protocol was approved by the Institutional Animal Care and Use Committee (IACUC) of the University of Iowa.

[2] = tested on: NIS expressing human tumor xenograft of FaDu carcinoma cells; settings: 4.2 Gy delivered to the tumor
Text: To begin to address this issue, the inventors have established a method to estimate dosimetry based on gamma camera imaging of ^131I uptake and retention using a pinhole collimator. […] Data collected from the pinhole collimator gamma camera imaging has enabled us to calculate doses delivered to tumor xenografts and therefore to perform comparative dosimetry between different isotopes such as ^131I and ^188ReO4—.

NIS [3] = biological target: T1, NIS (Homo sapiens, UniProt Q92911); settings: stably transfected cell lines; cited from earlier work
T1 sequence (Q92911 1-643): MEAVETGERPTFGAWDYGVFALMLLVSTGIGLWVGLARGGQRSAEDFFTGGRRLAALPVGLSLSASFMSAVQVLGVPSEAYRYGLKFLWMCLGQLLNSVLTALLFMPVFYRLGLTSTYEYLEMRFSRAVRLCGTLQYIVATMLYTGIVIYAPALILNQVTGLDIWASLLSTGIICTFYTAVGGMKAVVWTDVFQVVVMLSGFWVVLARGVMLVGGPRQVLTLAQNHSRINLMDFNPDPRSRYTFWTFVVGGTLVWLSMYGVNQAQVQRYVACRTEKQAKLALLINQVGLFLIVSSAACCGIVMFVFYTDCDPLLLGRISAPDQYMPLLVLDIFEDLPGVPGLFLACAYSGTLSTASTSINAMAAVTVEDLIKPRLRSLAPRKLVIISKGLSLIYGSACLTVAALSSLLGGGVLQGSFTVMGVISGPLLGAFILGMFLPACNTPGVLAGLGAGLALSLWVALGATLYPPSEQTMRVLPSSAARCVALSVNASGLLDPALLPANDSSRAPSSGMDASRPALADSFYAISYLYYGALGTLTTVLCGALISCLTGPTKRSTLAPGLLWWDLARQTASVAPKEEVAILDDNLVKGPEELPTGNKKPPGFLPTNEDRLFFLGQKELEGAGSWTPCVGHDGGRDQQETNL

[4] = radionuclide half-life; cited from earlier work
[5] = tested on: NIS-expressing tumor tissue; experiment: Gamma camera imaging of 188ReO4 uptake in Ad-NIS injected tumor bearing mouse; format: in vivo; settings: 2 hours after systemic administration
Text: As discussed in detail below, the beta particle emitted from ^188Re is more energetic than that of ^131I and can travel a further distance in tissue, thus may be well suited to use in the context of larger tumors that are found in human head and neck cancer.

[6] = tested on: NIS-expressing F98 gliomas; settings: rats bearing NIS-expressing F98 gliomas; cited from earlier work
NIS [7] = biological target: T1, NIS; experiment: Perchlorate inhibition of NIS-mediated radioiodide uptake in FaDu cells; format: cell-based; design: The full-length hNIS cDNA was digested from this plasmid and ligated into the pacAd5 CMV K—N pA shuttle vector; expressed in transfected cells; settings: 1 mM sodium perchlorate added before radioiodide, Ad-hNIS-transduced FaDu cells
Method: Radioiodide Uptake and Efflux. Cells (2.5×10^5) were seeded in each well of 12-well plates on day 1. Twelve hours later, 40 multiplicity of infection (MOI; the ratio of infectious viral particles to cells) of adenovirus was added to each well. Twenty-four hours later, 2 μCi of sodium [^125I] iodide (New England Nuclear, North Billerica, Mass.) was added to each well, and the plates were incubated for 1 hour at 37° C. […] Medium was then removed, and cells were washed once with PBS. Plates were then exposed overnight on a phosphor imaging screen, and signal intensity was determined with a Typhoon 9400 imager (Amersham Biosciences, Buckinghamshire, England). Signal intensity was compared with that of standards of known activity. […] To determine the rate of [^125I] iodide efflux from cells, uptake was performed as previously described.

Ad-NIS infected cells = experiment: Iodide retention with recombinant LPO during the efflux period; format: cell-based; settings: recombinant LPO present during efflux period, 2 hours of efflux
Text: The inventors are also exploring other novel methods to enhance iodine retention in cells and, to this end, they have examined the effect of lactoperoxidase (LPO) on iodide organification and retention in NIS+ cell populations.

[8] = sixty days after [131I] iodide administration

## [131I-].[Na+] [[^131I] iodide, sodium [^131I] iodide]
[1]; NIS-FaDu established tumors (5 mm), 1 mCi [131I] iodide i.p.
  tumors with complete response (shrunk beyond the limit of detection): eight of eight
[1]; mice given 1 mCi [131I] iodide i.p.
  local adverse effects of radiotherapy: No local adverse effects
[1]; [8]
  tumors recurred: two
  tumors remaining in complete remission: six
[2]
  tumor outcome at the delivered dose: remission of this tumor

## [O]=[Re](=[O])(=[O])[O-] [^188ReO4, Perrhenate]
NIS [3]
  in vitro uptake as compared to iodide: two- to three-fold higher
[4]
  t1/2: 16.9 h
[5]
  tissue accumulation of 188ReO4-: thyroid, stomach, and NIS-expressing tumor tissue, also display high affinity
[6]
  survival versus 131I treatment: increased survival

## [Na+].[O-][Cl+3]([O-])([O-])[O-] [Perchlorate, sodium perchlorate]
NIS [7]
  effect on NIS-mediated [125I] iodide accumulation: inhibited iodide accumulation; also recorded: inhibits NIS-mediated [^125I] iodide uptake

## lactoperoxidase [LPO]
Ad-NIS infected cells
  cell-associated iodide during efflux: significantly longer retention times; also recorded: increased levels of cell-associated iodide

Source: patent publication US20060193832A1, “Use of the sodium iodine symporter to effect uptake of iodine” (priority 2005, published 2006)
